From patent publication US20180289678A1, “PHARMACEUTICAL COMPOSITION, PHARMACEUTICAL DOSAGE FORM, PROCESS FOR THEIR PREPARATION, METHODS FOR TREATING AND USES THEREOF” (Boehringer Ingelheim International GmbH, priority 2009, published 2018)

Assay: Particle size distribution measurement by laser diffraction
Format: physicochemical
Details: particle size distribution by volume
Text: The value X90 refers to the 90% value of the volume distribution measured using a laser diffractometer. In other words, for the purposes of the present invention, the X90 value denotes the particle size below which 90% of the quantity of particles is found based on the volume distribution. Analogously the value X50 refers to the 50% value (median) of the volume distribution measured using a laser diffractometer. In other words, for the purposes of the present invention, the X50 value denotes the particle size below which 50% of the quantity of particles is found based on the volume distribution. Analogously the value X10 refers to the 10% value of the volume distribution measured using a laser diffractometer. In other words, for the purposes of the present invention, the X10 value denotes the particle size below which 10% of the quantity of particles is found based on the volume distribution.
Preferably all X90, X50, X10 values hereinbefore and hereinafter are by volume and determined by laser-diffraction method, in particular low angle laser light scattering, i.e. Fraunhofer diffraction. A preferred test is described in the experimental section. The laser diffraction method is sensitive to the volume of a particle and provides a volume-average particle size, which is equivalent to the weight-average particle size if the density is constant.
3. Particle Size Distribution Measurement by Laser Diffraction
Particle size distribution measurement is performed for example via light scattering or laser diffraction technique. To determine the particle size the powder is fed into a laser diffraction spectrometer for example by means of a dispersing unit. The test method is described below in detail:
Equipment: Laser Diffraction Spectrometer Sympatec HELOS Particle Sizer.
Sample Dispersing Unit: Dry disperser RODOS/M
Feed Velocity: 60.00 mm/s
Primary pressure: 2.00 bar
Injector depression: maximize (mbar)2
Reference Measurement: 10 seconds
Trigger Conditions: Start 0.0 seconds after optical concentration 1% valid always
Stop after 5.0 seconds optical concentration 1% or after 30 seconds real time
Optical Concentration: Approximately range 3-12%
Sample Size: Approximately 100 mg
Number of measurements: 2 (duplicate)
The instrument is set up according to the manufacturer's recommendation and using the manufacturer provided software. The sample container is thoroughly mixed and tumbled prior to removing a portion of the sample to ensure that a representative sample is tested. Duplicate samples are prepared by using a spatula to transfer approximately 100 mg of a sample into the ASPIROS glass vials and cap the vials. The capped cials are placed into the feeder.

Row | X10 [μm] | X50 [μm] | X90 [μm] | SMILES
1 | 1.8 | 18.9 | 45.3 | OC[C@H]1O[C@@H](c2ccc(Cl)c(Cc3ccc(O[C@H]4CCOC4)cc3)c2)[C@H](O)[C@@H](O)[C@@H]1O [Active substance Batch 1]
2 | 1.7 | 12.1 | 25.9 | OC[C@H]1O[C@@H](c2ccc(Cl)c(Cc3ccc(O[C@H]4CCOC4)cc3)c2)[C@H](O)[C@@H](O)[C@@H]1O [Active substance Batch 2]
